# Measurements reported in ChEMBL document CHEMBL1201862, “PubChem BioAssay data set” (2004).
# Active and inactive are the calls of the source. Cut-off read from the data, not from the text of the source, for most assays here: actives have a measured EC50 and inactives only a lower limit.
# Tested on: not listed separately
# Test: Luminescence Cell-Based Dose Response HTS to Identify Activators of Luciferase Translation or Activity in H4 […] Cells. [Related pubchem assays: 1829 (Project Summary), 1814 (Primary HTS)]
# Format: functional
# Conditions: not given
row,Structure (SMILES),EC50
1,COc1cccc(-c2nnc(SCc3cccnc3)o2)c1,33.1 µM (active)
2,Cc1csc(Nc2ccccc2)[n+]1-c1ccccc1,> 30 µM (not active)
3,O=C(NCCc1c[nH]c2ccccc12)c1ccc(Cl)cc1,> 120 µM (not active)
4,CC(/C=N/Nc1n[nH]c2c3ccccc3nc-2n1)=C\c1ccco1,17.6 µM (active)
5,CCN(CC)c1ccc(C(=O)OCC(=O)c2ccco2)cc1,94 µM (active)
6,O=C(Cc1ccc(O)cc1)NC1CCCCCC1,52 µM (active)
7,Oc1ccc(-c2csc(-c3c[nH]c4ccccc34)n2)c(O)c1,4.35 µM (inconclusive)

# Tested on: not listed separately
# Test: Luminescence Cell-Based Dose Confirmation HTS to Identify Activators of 5'UTR Stem-Loop Driven Alpha-Synuclein mRNA Translation in H4 Neuroglioblastoma Cells. [Related pubchem assays: 1829 (Project Summary), 1814 (Primary HTS)]
# Format: functional
# Conditions: not given
row,Structure (SMILES),EC50
1,COc1cccc(-c2nnc(SCc3cccnc3)o2)c1,43.2 µM (active)
2,Cc1csc(Nc2ccccc2)[n+]1-c1ccccc1,> 120 µM (not active)
3,O=C(NCCc1c[nH]c2ccccc12)c1ccc(Cl)cc1,21.9 µM (active)
4,CC(/C=N/Nc1n[nH]c2c3ccccc3nc-2n1)=C\c1ccco1,11 µM (active)
5,CCN(CC)c1ccc(C(=O)OCC(=O)c2ccco2)cc1,14.1 µM (active)
6,O=C(Cc1ccc(O)cc1)NC1CCCCCC1,47.4 µM (active)
7,Oc1ccc(-c2csc(-c3c[nH]c4ccccc34)n2)c(O)c1,0.115 µM (active)

# Biological target: FAD-linked sulfhydryl oxidase ALR (Homo sapiens, UniProt P55789)
# Test: ALR-catalysed DTT oxidation blockers – biochemical, H2O2 detection, luminescence, cherry-pick, dose response (AID 493248)
# Conditions: not given
# Sequence of FAD-linked sulfhydryl oxidase ALR (P55789 whole entry): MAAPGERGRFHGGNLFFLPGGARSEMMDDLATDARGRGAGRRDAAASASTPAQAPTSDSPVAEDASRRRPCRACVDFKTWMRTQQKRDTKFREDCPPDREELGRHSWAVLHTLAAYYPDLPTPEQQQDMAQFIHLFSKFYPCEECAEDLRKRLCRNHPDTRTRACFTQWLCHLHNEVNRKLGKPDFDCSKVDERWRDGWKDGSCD
row,Structure (SMILES),AC50
1,O=C(CCN1CCCCCC1)c1ccccc1,5.85 µM (active)
2,Cc1csc(Nc2ccccc2)[n+]1-c1ccccc1,1.14 µM (active)

# Biological target: T1, Streptokinase A (Streptococcus pyogenes serotype M1, UniProt P10520)
# T1 sequence (P10520 whole entry): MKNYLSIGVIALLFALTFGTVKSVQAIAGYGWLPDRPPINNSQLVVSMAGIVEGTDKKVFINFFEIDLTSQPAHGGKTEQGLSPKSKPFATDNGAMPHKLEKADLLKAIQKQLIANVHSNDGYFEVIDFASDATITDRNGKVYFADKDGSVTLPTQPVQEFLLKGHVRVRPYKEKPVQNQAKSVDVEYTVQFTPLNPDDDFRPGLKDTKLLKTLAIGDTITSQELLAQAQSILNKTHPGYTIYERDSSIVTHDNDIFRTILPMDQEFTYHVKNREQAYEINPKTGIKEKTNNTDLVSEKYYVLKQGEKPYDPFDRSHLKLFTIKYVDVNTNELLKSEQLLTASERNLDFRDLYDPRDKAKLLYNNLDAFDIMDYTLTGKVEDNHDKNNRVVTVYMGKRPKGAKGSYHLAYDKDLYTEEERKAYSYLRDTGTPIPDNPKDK
# Test: viability-normalized secreted streptokinase activity reduction – plasminogen activation absorbance, OD405, dose response (AID 1914);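 note: secreted streptokinase activity via plasminogen activation per viability signal from cell pellet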
# Format: functional, Streptococcus pyogenes M1 GAS
# Conditions: not given
row,Structure (SMILES),EC50
1,Cc1ccc(C(=O)CC(=O)c2ccccc2C)c(O)c1,> 150 µM (not active)

# Tested on: H4
# Test: Luminescence Cell-Based Dose Response HTS to Identify Activators of 5'UTR Stem-Loop Driven Prion Protein mRNA Translation in H4 Neuroglioblastoma Cells. [Related pubchem assays: 1829 (Project Summary), 1814 (Primary HTS)]
# Format: functional
# Conditions: Homo sapiens
row,Structure (SMILES),EC50
1,COc1cccc(-c2nnc(SCc3cccnc3)o2)c1,12.2 µM (active)
2,Cc1csc(Nc2ccccc2)[n+]1-c1ccccc1,6.74 µM (active)
3,O=C(NCCc1c[nH]c2ccccc12)c1ccc(Cl)cc1,> 120 µM (not active)
4,CC(/C=N/Nc1n[nH]c2c3ccccc3nc-2n1)=C\c1ccco1,15.5 µM (active)
5,CCN(CC)c1ccc(C(=O)OCC(=O)c2ccco2)cc1,57.4 µM (active)
6,O=C(Cc1ccc(O)cc1)NC1CCCCCC1,16.8 µM (active)
7,Oc1ccc(-c2csc(-c3c[nH]c4ccccc34)n2)c(O)c1,10.2 µM (active)

# Tested on: not listed separately
# Test: NIH-3T3 fibroblast cytotoxicity, dose response, cytotoxicity control, cell-based, fluorescence, Alamar Blue, secondary assay (AID 2327);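 note: NIH-3T3 mouse fibroblasts cultured with fluconazole at 8 µg/mL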
# Format: functional
# Conditions: not given
row,Structure (SMILES),EC50
1,O=C(c1ccccc1)c1c[nH]c(C(=O)NNc2ccccc2)c1,28.3 µM (active)
2,Cc1ccc(C(=O)CC(=O)c2ccccc2C)c(O)c1,> 150 µM (inactive)

# Tested on: not listed separately
# Test: microbe, parasite or virus in culture
# Format: functional
# Conditions: Mycobacterium tuberculosis
row,Structure (SMILES),CC50
1,Cc1ccc(C#CC[N+]2(CC#Cc3ccc(C)cc3)CCCCC2)cc1,> 40 µM (active)

# Biological target: T2, Rac GTPase-activating protein 1 (Homo sapiens, UniProt Q9H0H5)
# T2 sequence (Q9H0H5 whole entry): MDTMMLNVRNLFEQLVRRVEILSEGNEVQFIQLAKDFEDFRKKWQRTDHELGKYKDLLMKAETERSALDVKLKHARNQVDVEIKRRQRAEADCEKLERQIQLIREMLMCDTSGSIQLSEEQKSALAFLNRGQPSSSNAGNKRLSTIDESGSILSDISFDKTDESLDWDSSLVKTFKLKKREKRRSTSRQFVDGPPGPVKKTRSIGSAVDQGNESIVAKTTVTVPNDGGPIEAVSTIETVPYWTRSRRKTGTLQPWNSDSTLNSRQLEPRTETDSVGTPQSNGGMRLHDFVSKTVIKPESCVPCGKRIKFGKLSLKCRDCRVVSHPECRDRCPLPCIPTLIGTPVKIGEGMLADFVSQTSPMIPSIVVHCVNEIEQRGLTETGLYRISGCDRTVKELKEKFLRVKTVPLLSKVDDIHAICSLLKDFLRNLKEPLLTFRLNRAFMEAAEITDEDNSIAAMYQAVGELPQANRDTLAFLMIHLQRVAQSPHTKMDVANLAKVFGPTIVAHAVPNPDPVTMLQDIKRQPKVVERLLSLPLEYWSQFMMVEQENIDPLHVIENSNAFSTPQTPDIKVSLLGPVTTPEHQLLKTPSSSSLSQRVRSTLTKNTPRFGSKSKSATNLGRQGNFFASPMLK
# Test: blockers of MgcRacGAP-driven Rac1 GTP hydrolysis – biochemical, ADP Hunter fluorescence, primary and confirmatory, confirmation (AID 624330)
# Format: functional
# Conditions: not given
row,Structure (SMILES),IC50
1,COc1cc(/C=N/NC(=O)Cn2nnc3ccccc32)ccc1O,24.3 µM (active)
2,COc1cc(/C=N/NC(=O)CNc2nnc(O)nc2O)ccc1O,35.9 µM (active)

# Tested on: Streptococcus
# Test: GAS UMAA2166 growth inhibition – luminescence, BacTiterGlo, counter-screen for streptokinase expression inhibitor project, dose response (AID 1915);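 note: potency for reduction of bacterial viability or growth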
# Format: functional, organism-based
# Conditions: not given
row,Structure (SMILES),EC50
1,Cc1ccc(C(=O)CC(=O)c2ccccc2C)c(O)c1,9.83 µM (active)

# Tested on: not listed separately
# Test: Luminescence Cell-Based Dose Retest to Confirm Inhibitors of Cancer Stem Cells. [Related pubchem assays (depositor defined):AID2717, AID2721]
# Format: functional
# Conditions: Homo sapiens
row,Structure (SMILES),AC50
1,O=C(c1ccccc1)c1c[nH]c(C(=O)NNc2ccccc2)c1,1.09 µM (active)
2,O=C(N/N=C/c1ccc(O)cc1O)/C(=C/c1ccccc1)CCO,6.81 µM (active)
3,O=C(c1ccco1)c1nnn(Cc2ccccc2)c1-c1ccccc1,3.72 µM (active)

# Tested on: Streptococcus sp. 'group A'
# Test: Streptococcus pyogenes SK(-)GAS viability under kanamycin – luminescence, BacTiterGlo, confirmation, counter-screen for streptokinase expression inhibitor project, dose response (AID 1900)
# Format: functional, organism-based
# Conditions: not given
row,Structure (SMILES),EC50
1,Cc1ccc(C(=O)CC(=O)c2ccccc2C)c(O)c1,6.61 µM (active)

# Biological target: T3, Microphthalmia-associated transcription factor (Homo sapiens, UniProt O75030)
# T3 sequence (O75030 whole entry): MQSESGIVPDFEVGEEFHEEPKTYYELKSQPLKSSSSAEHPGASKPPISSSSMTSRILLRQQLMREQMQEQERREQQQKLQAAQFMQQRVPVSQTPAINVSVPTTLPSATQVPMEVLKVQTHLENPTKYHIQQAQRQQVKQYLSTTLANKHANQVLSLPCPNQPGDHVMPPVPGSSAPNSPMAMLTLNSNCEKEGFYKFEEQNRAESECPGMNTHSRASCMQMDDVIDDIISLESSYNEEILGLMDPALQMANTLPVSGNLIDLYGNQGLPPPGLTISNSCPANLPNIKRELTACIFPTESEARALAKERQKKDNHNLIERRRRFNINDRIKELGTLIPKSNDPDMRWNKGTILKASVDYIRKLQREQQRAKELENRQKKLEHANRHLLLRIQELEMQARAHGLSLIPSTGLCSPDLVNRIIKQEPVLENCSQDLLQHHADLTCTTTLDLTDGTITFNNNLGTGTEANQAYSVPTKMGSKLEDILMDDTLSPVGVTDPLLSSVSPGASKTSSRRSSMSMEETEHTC
# Test: reducers of TRPM1 reporter luminescence, concentration series – cell-based, SK-MEL-5, cherry-picked, set 3, MITF inhibitor project, dose response (AID 493073);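 note: SK-MEL-5 melanoma cells with luciferase driven by the MITF target TRPM1 promoter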
# Format: functional
# Conditions: not given
row,Structure (SMILES),AC50
1,CC1CC(C)CN(C(=O)/C=C/c2ccc([N+](=O)[O-])s2)C1 (stereo not drawn),11.9 µM (active)
2,O=C(CNC(=O)c1ccccc1)N/N=C/c1ccc([N+](=O)[O-])s1,5.34 µM (active)
3,Cc1ccc(C#CC[N+]2(CC#Cc3ccc(C)cc3)CCCCC2)cc1,3.95 µM (active)

# Tested on: INS1
# Test: INS-1E survival protection against cytokine death – cell-based, luminescence, retest, dose response (AID 449756);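 note: cell death triggered by IL-1 beta plus TNF-alpha plus IFN-gamma mixture; protective hits raise ATP signal compared with cytokine alone wells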
# Format: functional
# Conditions: Rattus norvegicus
row,Structure (SMILES),AC50
1,O=C(N/N=C/c1ccc(O)cc1O)/C(=C/c1ccccc1)CCO,2.11 µM (active)
2,Cc1ccc(C#CC[N+]2(CC#Cc3ccc(C)cc3)CCCCC2)cc1,2.04 µM (active)

# Tested on: not listed separately
# Test: fluconazole-exposed Candida albicans growth modulators – fluorescence, retest, confirmation (AID 2467)
# Format: functional, cell-based
# Conditions: not given
row,Structure (SMILES),EC50
1,O=C(c1ccccc1)c1c[nH]c(C(=O)NNc2ccccc2)c1,> 38 µM (not active)
2,Cc1ccc(C(=O)CC(=O)c2ccccc2C)c(O)c1,> 38 µM (not active)

# Biological target: Large T antigen (Simian virus 40, UniProt P03070);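 note: Confirmatory-stage PubChem screen for compounds that inhibit SV40 T antigen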
# Test: not given
# Format: functional, Betapolyomavirus macacae
# Conditions: not given
# Sequence of Large T antigen (P03070 whole entry): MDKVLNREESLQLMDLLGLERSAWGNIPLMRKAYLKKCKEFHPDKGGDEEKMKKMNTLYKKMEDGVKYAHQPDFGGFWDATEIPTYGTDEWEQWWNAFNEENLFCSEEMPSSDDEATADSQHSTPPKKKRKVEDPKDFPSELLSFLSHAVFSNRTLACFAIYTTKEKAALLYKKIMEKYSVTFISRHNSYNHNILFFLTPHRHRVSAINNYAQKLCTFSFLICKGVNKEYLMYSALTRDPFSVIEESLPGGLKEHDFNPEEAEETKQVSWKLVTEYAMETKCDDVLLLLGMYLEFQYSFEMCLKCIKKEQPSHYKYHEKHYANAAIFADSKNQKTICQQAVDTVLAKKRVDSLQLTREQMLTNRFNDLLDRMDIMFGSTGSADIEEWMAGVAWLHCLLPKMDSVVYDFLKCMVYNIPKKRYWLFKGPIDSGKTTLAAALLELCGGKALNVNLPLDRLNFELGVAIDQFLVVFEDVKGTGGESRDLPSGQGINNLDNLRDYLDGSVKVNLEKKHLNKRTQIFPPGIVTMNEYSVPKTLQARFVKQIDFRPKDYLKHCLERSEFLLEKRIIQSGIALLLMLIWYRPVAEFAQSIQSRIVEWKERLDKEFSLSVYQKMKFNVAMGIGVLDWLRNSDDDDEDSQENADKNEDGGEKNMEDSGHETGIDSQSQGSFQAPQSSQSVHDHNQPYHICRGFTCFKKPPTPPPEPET
row,Structure (SMILES),IC50
1,COc1cc(/C=N/NC(=O)Cn2nnc3ccccc32)ccc1O,6.59 µM (active)
2,COc1cc(/C=N/NC(=O)CNc2nnc(O)nc2O)ccc1O,8.93 µM (active)
3,O=C(N/N=C/c1ccc(O)cc1O)/C(=C/c1ccccc1)CCO,19.4 µM (active)

# Tested on: not listed separately
# Test: cells
# Format: functional
# Conditions: not given
row,Structure (SMILES),IC50
1,O=C(CCN1CCCCCC1)c1ccccc1,41 µM (active)

# Biological target: T4, Heat shock factor protein 1 (Mus musculus, UniProt P38532)
# T4 sequence (P38532 whole entry): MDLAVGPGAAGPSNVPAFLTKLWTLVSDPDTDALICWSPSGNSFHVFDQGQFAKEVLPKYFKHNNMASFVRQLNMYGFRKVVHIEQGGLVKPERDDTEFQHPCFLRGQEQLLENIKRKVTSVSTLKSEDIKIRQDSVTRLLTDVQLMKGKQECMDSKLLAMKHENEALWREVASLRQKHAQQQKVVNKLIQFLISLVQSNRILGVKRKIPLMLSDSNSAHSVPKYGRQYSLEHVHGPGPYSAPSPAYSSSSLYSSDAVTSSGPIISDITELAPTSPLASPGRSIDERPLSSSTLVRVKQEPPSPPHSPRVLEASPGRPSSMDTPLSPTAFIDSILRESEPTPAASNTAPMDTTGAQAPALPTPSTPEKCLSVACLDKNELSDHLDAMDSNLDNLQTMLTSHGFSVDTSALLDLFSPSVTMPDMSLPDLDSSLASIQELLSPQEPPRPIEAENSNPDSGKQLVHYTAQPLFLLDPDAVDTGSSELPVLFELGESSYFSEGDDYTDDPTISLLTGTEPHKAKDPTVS
# Test: decrease of HSF1-responsive luciferase luminescence – cell-based, NIH3T3, dose retest, confirmation (AID 2382);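 note: NIH3T3 fibroblasts with HSF1-driven luciferase reporter stressed by proteasome inhibitor MG132; luminescence from HSF1-driven luciferase expression after 8 hours of MG132 stress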
# Format: functional
# Conditions: not given
row,Structure (SMILES),EC50
1,O=C(Cc1ccc(O)cc1)NC1CCCCCC1,> 195 µM (not active)

# Tested on: not listed separately
# Test: Trypanosoma cruzi growth suppression in host cells – NIH3T3 host cells, beta-gal luminescence, confirmation (AID 2044);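 note: intracellular parasites grown in NIH/3T3 mouse fibroblasts as host cells; luminescent beta-galactosidase reporter signal from transgenic T. cruzi replicating inside host cells; inhibitors lower the luminescence signal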
# Format: functional, cell-based
# Conditions: not given
row,Structure (SMILES),EC50
1,O=C(c1ccccc1)c1c[nH]c(C(=O)NNc2ccccc2)c1,1.71 µM (active)
2,O=C(CNC(=O)c1ccccc1)N/N=C/c1ccc([N+](=O)[O-])s1,0.285 µM (active)
3,Cc1ccc(C#CC[N+]2(CC#Cc3ccc(C)cc3)CCCCC2)cc1,0.344 µM (active)

# Tested on: not listed separately
# Test: NIH3T3 cell viability loss – ATP luminescence, mouse fibroblasts, counter-screen, dose response (AID 2010);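 note: cells exposed to compound for about 90 hours before reading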
# Format: functional, cell-based
# Conditions: not given
row,Structure (SMILES),EC50
1,O=C(c1ccccc1)c1c[nH]c(C(=O)NNc2ccccc2)c1,7.46 µM (active)
2,O=C(CNC(=O)c1ccccc1)N/N=C/c1ccc([N+](=O)[O-])s1,12.7 µM (active)
3,Cc1ccc(C#CC[N+]2(CC#Cc3ccc(C)cc3)CCCCC2)cc1,> 60 µM (inconclusive)

# Biological target: T4, Heat shock factor protein 1
# Test: enhancement of HSF1-driven luciferase signal – cell-based, NIH3T3, luminescence, dose retest, confirmation (AID 435004);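 note: stress induced by proteasome inhibitor MG132 added 30 min after compound; luciferase reporter driven by HSF1 response element in NIH3T3 cells; actives raise luminescence as potentiators of the MG132 stress response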
# Format: functional
# Conditions: not given
row,Structure (SMILES),EC50
1,O=C(c1ccco1)c1nnn(Cc2ccccc2)c1-c1ccccc1,> 260 µM (inactive)
